Laboratory results taken from patent US20050250737A1, “Therapeutic ophthalmic compositions containing retinal friendly excipients and related methods” (Allergan, Inc., priority 2003, published 2005).
Read-outs that look alike come from different tables or passages of the source. Values belong to the compound of their own block, whether it stands above or below them.

Assays:
in vitro = details: human, Cell viability
Description: (§1) Cell viability and cell morphology were examined to evaluate the toxicity of excipients on retinal pigment epithelial cells. The human retina cell line used in these experiments is the ARPE-19 cell line (human adult-derived retinal pigmented epithelial cells). […] They form tight-junctions with transepithelial resistance of monolayers (Dunn K C et al., supra). From a molecular standpoint, it appears that ARPE-19 express a huge pattern of genes similar to those expressed by human RPE from fresh explant which could account for their physiological function (Klimanskaya I. et al., “Derivation and comparative assessment of retinal pigment epithelium from human embryonic stem cells using transcriptomics”, Cloning and Stem Cells, 2004, 6(3):217-45).
(§2) ARPE-19 cells are widely used as a retinal model that resemble physiological properties of RPE cells. Similar methods of culturing ARPE-19 cells and cytotoxicity assays can be found in Yeung et al., “Cytotoxicity of triamcinolone on cultured human retinal pigment epithelial cells: comparison with dexamethasone and hydrocortisone”, Jpn J. Ophthalmol, 2004; 48:236-242. Cell viability and cell morphology were examined using conventional colormetric and visual methods. Viability and morphology measurements were obtained at 24 hours, 48 hours, and 72 hours after exposure to an excipient composition.
(§3) To assess cell viability, mitochondrial metabolism was quantified through conventional colorometric assays (i.e., the MTT assay). This calorimetric assay utilizes 3-(4,5-dimethylthiazol-2-yl)-2,5-diphenyltetrazolium bromide (MTT) and correlates mitochondrial metabolism and cell viability through measurement of dehydrogenase activity which converts a substrate into crystal. More specifically, the assay measures the activity of living cells through mitochondrial dehydrogenases. When dissolved in culture cell medium, MTT solution appears dark orange. Mitochondrial dehydrogenases of viable cells degrade MTT by cleaving the tetrazolium ring yielding to formation of a purple formazan crystal, which is insoluble in water. Crystals are subsequently dissolved in isopropanol solution. A resulting purple solution is spectrophotometrically measured. Cell viability is relative to amount of formazan and calculated as a percentage of remaining treated compared to non-treated cells.
(§4) Results from the MTT assay were expressed as a percentage of cell viability calculated using the following equation: % cell viability=ODtest/ODcontrol×100.
(§5) For each experiment, one concentration was performed in triplicate. Each point was spectrophotometrically read twice. Average of readings was calculated, then average from these 3 values was determined.
(§6) After 3 experiments were independently completed under the same conditions, a graph was plotted with cell viability expressed as a function of concentration (dose response) and for various incubation period (time course). The IC50 was then estimated based on the graphed data.
(§7) More specifically, cell density in 24-multiwell plates was observed on the day of the experiment to check if confluence of the cells was reached. Aliquots of MTT concentrated solutions were removed from a freezer at −20° C. and thawed at room temperature. Cell medium was warmed at 37° C. before use. Appropriated tubes for diluting compounds were prepared. Higher concentrations of each excipient agent was prepared. Serial dilution was then performed in cell medium (DMEM:F12+10% FBS).
(§8) Cell culture medium in the 24-well plate was removed using vacuum-pump. Cells were then stimulated with 0.5 ml final volume for each concentration of one given excipient agent. Distribution of the excipient-containing solution was performed using automated pipet-aid in sterile environment (under PSM) or not depending on time of compounds and duration of incubation.
(§9) After stimulation, cells were replaced in a CO2 incubator for the required time of exposure.

ARPE-19 cells [1] = assay: MTT cell viability assay on ARPE-19 cells
Description: as §1, §2, §3, §4, §5, §6, §7, §8, §9

[2] = pH of excipient-containing incubating solutions; assay type: physicochemical
Method: (§10) For each concentration of tested compound, pH and osmolarity parameters were measured.

[3] = Osmolarity of excipient-containing incubating solutions; assay type: physicochemical
Method: Osmolarity was measured using osmometer type 13/13DR from Roebling (Berlin, GR).
as §10

ARPE-19 cells [4] = assay type: cell-based
Method: Cell morphology was visualized using light microscopy. Cell morphology observation using light microscopy permits determination of (i) cell number and density and (ii) whether or not cells in contact with an excipient agent display modified phenotype compared to a non-treated population of cells.
Cell morphology was analyzed in parallel by semi-quantitative scoring ranging from 5 to 1, from basal to lethal phenotype respectively, as shown in FIG. 23.
More specifically, cells were removed from an incubator for examination. Morphological shape of cells was visualized using a light microscope and CCD camera. Every 3 wells of a given concentration was observed through image analysis software. Then, a representative photograph describing the average appearance of cells was saved. The supernatant was either, kept for further predefined experiments to perform, or removed using vacuum-pump.
Resulting semi-quantitative scoring is represented as a function of time course and dose response. Score 5 : wild type phenotype of non-treated cells, 100% confluent adherent cells. This phenotype very much vary following post-seeding time. For example, at confluence ARPE-19 cells at 1 day appear well defined with visible outer membrane and dark grey cytoplasm. After 3 days of confluence, limits between cells become less visible and cells adopt a more hexagonal shape and constitute an epithelium-like uniform dense structure. Score 4: density <100%. Cell shape has changed, some spaces are present between cells, few cells possibly detached. Score 3: 80% <Cell density <40%. Spaces are sometimes present among cells, areas appears confluent while in others, cells detached. General cell shape starts showing non negligible alterations. Score 2: Cell density <50%. Cells adopt exclusively stressed appearance, presence of mass dead floating cells. Score 1: Cell density <10%. Presence of almost exclusively dead cells.
Based on quotation, each condition of the applied compound was given a score which allow to a morphology evolution profile to be prepared, ie. cell morphology as a function of compound concentration and time of exposure. […]

Compound: CCCCCCCC/C=C\CCCCCCCC(=O)OCCOCC(OCCO)C1OCC(OCCO)C1OCCO (stereo not shown) [Polysorbate 80, polysorbate 80]
viability at 24 h, 0.01 % (in vitro; Mean (%)): 93.5% | viability at 24 h, 0.02 % (in vitro; Mean (%)): 98.6% | viability at 24 h, 0.04 % (in vitro; Mean (%)): 104% | viability at 24 h, 0.06 % (in vitro; Mean (%)): 101% | viability at 24 h, 0.08 % (in vitro; Mean (%)): 82.3% | viability at 24 h, 0.1 % (in vitro; Mean (%)): 3.9% | viability at 48 h, 0.01 % (in vitro; Mean (%)): 110% | viability at 48 h, 0.02 % (in vitro; Mean (%)): 118% | viability at 48 h, 0.04 % (in vitro; Mean (%)): 125% | viability at 48 h, 0.06 % (in vitro; Mean (%)): 128% | viability at 48 h, 0.08 % (in vitro; Mean (%)): 72.9% | viability at 48 h, 0.1 % (in vitro; Mean (%)): 0.5% | viability at 72 h, 0.01 % (in vitro; Mean (%)): 120% | viability at 72 h, 0.02 % (in vitro; Mean (%)): 126% | viability at 72 h, 0.04 % (in vitro; Mean (%)): 142% | viability at 72 h, 0.06 % (in vitro; Mean (%)): 157% | viability at 72 h, 0.08 % (in vitro; Mean (%)): 74.8% | viability at 72 h, 0.1 % (in vitro; Mean (%)): 0.6% | viability at 24 h, 0.01 % (in vitro; experiments 1, 2, 3): 90.3% | viability at 24 h, 0.02 % (in vitro; experiments 1, 2, 3): 91.8% | viability at 48 h, 0.01 % (in vitro; experiments 1, 2, 3): 109% | viability at 48 h, 0.02 % (in vitro; experiments 1, 2, 3): 122% | viability at 48 h, 0.04 % (in vitro; experiments 1, 2, 3): 126% | viability at 72 h, 0.01 % (in vitro; experiments 1, 2, 3): 122% | viability at 72 h, 0.02 % (in vitro; experiments 1, 2, 3): 129% | viability at 72 h, 0.04 % (in vitro; experiments 1, 2, 3): 138% | viability at 72 h, 0.06 % (in vitro; experiments 1, 2, 3): 148% | Cell survival (ARPE-19 cells [1]; 0.1% (w/v)): substantially zero cell survival | Cell survival (ARPE-19 cells [1]; 0.1% (w/v), listed as Tween80): lethality | pH of excipient dilution ([2]; 0.01% in culture medium): 7.5 | pH of excipient dilution ([2]; 0.02% in culture medium): 7.6 | pH of excipient dilution ([2]; 0.04% in culture medium): 7.5 | pH of excipient dilution ([2]; 0.06% in culture medium): 7.5 | pH of excipient dilution ([2]; 0.08% in culture medium): 7.5 | pH of excipient dilution ([2]; 0.1% in culture medium): 7.6 | Osmolarity of excipient dilution ([3]; 0.01% in culture medium): 310 mOsm | Osmolarity of excipient dilution ([3]; 0.02% in culture medium): 307 mOsm | Osmolarity of excipient dilution ([3]; 0.04% in culture medium): 313 mOsm | Osmolarity of excipient dilution ([3]; 0.06% in culture medium): 346 mOsm | Osmolarity of excipient dilution ([3]; 0.08% in culture medium): 390 mOsm | Osmolarity of excipient dilution ([3]; 0.1% in culture medium): 523 mOsm

IC50 based on cell morphology (ARPE-19 cells [4]; ARPE-19, estimated from morphology data): about 0.07% | Morphology limit concentration (%) (ARPE-19 cells [4]; human): 0.07% | Cell morphology score, Mean (ARPE-19 cells [4]; human, 24 h, 0.05 %): 3.3 | Cell morphology score, Mean (ARPE-19 cells [4]; human, 24 h, 0.1 %): 3.0 | Cell morphology score, Mean (ARPE-19 cells [4]; human, 24 h, 0.5 %): 1.0 | Cell morphology score, Mean (ARPE-19 cells [4]; human, 24 h, 1 %): 1.0 | Cell morphology score, Mean (ARPE-19 cells [4]; human, 24 h, 2 %): 1.0 | Cell morphology score, Mean (ARPE-19 cells [4]; human, 24 h, […]): 1.0 | Cell morphology score, Mean (ARPE-19 cells [4]; human, 48 h, 0.05 %): 3.7 | Cell morphology score, Mean (ARPE-19 cells [4]; human, 48 h, 0.1 %): 3.0 | Cell morphology score, Mean (ARPE-19 cells [4]; human, 48 h, 0.5 %): 1.0 | Cell morphology score, Mean (ARPE-19 cells [4]; human, 48 h, 1 %): 1.0 | Cell morphology score, Mean (ARPE-19 cells [4]; human, 48 h, 2 %): 1.0 | Cell morphology score, Mean (ARPE-19 cells [4]; human, 48 h, […]): 1.0 | Cell morphology score, Mean (ARPE-19 cells [4]; human, 72 h, 0.05 %): 3.3 | Cell morphology score, Mean (ARPE-19 cells [4]; human, 72 h, 0.1 %): 3.0 | Cell morphology score, Mean (ARPE-19 cells [4]; human, 72 h, 0.5 %): 1.0 | Cell morphology score, Mean (ARPE-19 cells [4]; human, 72 h, 1 %): 1.0 | Cell morphology score, Mean (ARPE-19 cells [4]; human, 72 h, 2 %): 1.0 | Cell morphology score, Mean (ARPE-19 cells [4]; human, 72 h, […]): 1.0 | pH of excipient dilution ([2]; 0.05% in culture medium): 8 | pH of excipient dilution ([2]; 0.1% in culture medium): 8.1 | pH of excipient dilution ([2]; 0.5% in culture medium): 8 | pH of excipient dilution ([2]; 1% in culture medium): 7.9 | pH of excipient dilution ([2]; 2% in culture medium): 8 | pH of excipient dilution ([2]; […] in culture medium): 7.9 | Osmolarity of excipient dilution ([3]; 0.05% in culture medium): 293 mOsm | Osmolarity of excipient dilution ([3]; 0.1% in culture medium): 307 mOsm | Osmolarity of excipient dilution ([3]; 0.5% in culture medium): 347 mOsm | Osmolarity of excipient dilution ([3]; 1% in culture medium): 398 mOsm | Osmolarity of excipient dilution ([3]; 2% in culture medium): 493 mOsm | Osmolarity of excipient dilution ([3]; […] in culture medium): 444 mOsm
Compound: OCc1ccccc1 [Benzyl alcohol, benzyl alcohol]
MTT IC50 (%) (ARPE-19 cells [1]; ARPE-19 cells, summary Table 3): 0.07% | Cell viability, experiments 1, 2, 3 (ARPE-19 cells [1]; human, 72 h, 0.05 %): 50.8% | Living cells (observation) (ARPE-19 cells [4]): no living cells survived

Compound: sulfobutyl ether 4 beta-cyclodextrin [Captisol]
Reduction of cell survival (ARPE-19 cells [1]; 0.1% (w/v), 24, 48 and 72 hour time points): 10-20% | Cell survival (% of the initial value) (ARPE-19 cells [1]; 5% (w/v)): 70-80% | Cell survival (ARPE-19 cells [1]; 10% (w/v), 24 hour time point): 50-60% | pH of excipient dilution ([2]; 0.1% in culture medium): 7.6 | pH of excipient dilution ([2]; 0.5% in culture medium): 7.6 | pH of excipient dilution ([2]; 1% in culture medium): 7.6 | pH of excipient dilution ([2]; 5% in culture medium): 7.6 | pH of excipient dilution ([2]; 10% in culture medium): 7.7 | pH of excipient dilution ([2]; 20% in culture medium): 7.7 | Osmolarity of excipient dilution ([3]; 0.1% in culture medium): 310 mOsm | Osmolarity of excipient dilution ([3]; 0.5% in culture medium): 318 mOsm | Osmolarity of excipient dilution ([3]; 1% in culture medium): 333 mOsm | Osmolarity of excipient dilution ([3]; 5% in culture medium): 408 mOsm | Osmolarity of excipient dilution ([3]; 10% in culture medium): 518 mOsm | Osmolarity of excipient dilution ([3]; 20% in culture medium, listed as Sulfobutylether 4 beta-CD): far exceeds physiological osmolarity range | Osmolarity of excipient dilution ([3]; 20% in culture medium, listed as Sulfobutylether 4beta-CD): 710 mOsm

Compound: hydroxypropylmethyl cellulose [HPMC]
Cell viability, experiment 3 (ARPE-19 cells [1]): 77.4% | Decrease of cell viability (ARPE-19 cells [1]): 20-40%
